For the assay, the target named is APJ receptor (Homo sapiens (Human), UniProt P35414). The assay can be described thus: [35S]GTPγS binding assay on membranes from CHO cells stably expressing human APJ receptor. It counts as biochemical. To be noted: membranes of CHO cells stably expressing human APJ receptor, means of several independent experiments, read-out: Activity hAPJ SPA EC50 IP. An outline of the steps:
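EC50 values were obtained by non-linear regression of [35S]GTPγS (0.2 nM) binding after 90 min at RT, with nonspecific binding defined by 100 μM GTPγS. Reactions used human APJ–expressing CHO cell membranes on WGA PS beads in HEPES pH 7.5 buffer with 5 mM MgCl2, 200 mM NaCl, 3 μM GDP and 0.1% BSA.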

The values below come from patent US10736883B2, “Triazole furan compounds as agonists of the APJ receptor” (AMGEN INC., priority 2016, dated 2020).

APJ receptor, sequence (P35414 whole entry): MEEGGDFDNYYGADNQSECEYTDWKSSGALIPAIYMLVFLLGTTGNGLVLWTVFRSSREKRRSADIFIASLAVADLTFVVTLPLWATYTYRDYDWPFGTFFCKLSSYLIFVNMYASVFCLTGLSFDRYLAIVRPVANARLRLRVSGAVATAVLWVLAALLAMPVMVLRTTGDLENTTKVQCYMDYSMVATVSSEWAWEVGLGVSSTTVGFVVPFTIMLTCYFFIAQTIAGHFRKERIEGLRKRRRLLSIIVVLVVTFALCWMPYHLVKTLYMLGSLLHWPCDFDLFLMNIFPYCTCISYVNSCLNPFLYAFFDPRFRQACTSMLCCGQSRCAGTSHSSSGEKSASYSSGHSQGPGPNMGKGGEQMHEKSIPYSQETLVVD

`COc1cccc(OC)c1-n1c(NS(=O)(=O)[C@@H]2CCC[C@H]2c2ncc(F)cn2)nnc1-c1ccc(C)o1` (single isomer, unassigned) [Example 101.0, (1R,2S)—N-(4-(2,6-Dimethoxyphenyl)-5-(5-methyl-2-furanyl)-4H-1,2,4-triazol-3-yl)-2-(5-fluoro-2-pyrimidinyl)cyclopentanesulfonamide or (1S,2R)—N-(4-(2,6-dimethoxyphenyl)-5-(5-methyl-2-furanyl)-4H-1,2,4-triazol-3-yl)-2-(5-fluoro-2-pyrimidinyl)cyclopentanesulfonamide]: the half-maximal effective concentration (EC50) turned out to be 2 nM. The figure for `COc1cccc(OC)c1-n1c(NS(=O)(=O)[C@@H](CCO)[C@H](C)c2ncc(C)cn2)nnc1-c1ccc(C)o1` (single isomer, unassigned) [Example 62.0] is 0.22 nM. `COc1cccc(OC)c1-n1c(NS(=O)(=O)[C@H]2COc3cc(Cl)cnc3C2)nnc1-c1ccco1` (racemic) [Example 181.0, (3R)-7-Chloro-N-(4-(2,6-dimethoxyphenyl)-5-(2-furanyl)-4H-1,2,4-triazol-3-yl)-3,4-dihydro-2H-pyrano[3,2-b]pyridine-3-sulfonamide and (3S)-7-chloro-N-(4-(2,6-dimethoxyphenyl)-5-(2-furanyl)-4H-1,2,4-triazol-3-yl)-3,4-dihydro-2H-pyrano[3,2-b]pyridine-3-sulfonamide]: the EC50 came out at 5.9 nM. The value for `COc1cccc(OC)c1-n1c(NS(=O)(=O)[C@H]2C[C@@H](O)CN(c3ccc(F)c(C#N)c3)C2)nnc1-c1ccc(C)o1` (racemic) [Example 329.0, (3S,5R)-1-(3-Cyano-4-fluorophenyl)-N-(4-(2,6-dimethoxyphenyl)-5-(5-methyl-2-furanyl)-4H-1,2,4-triazol-3-yl)-5-hydroxy-3-piperidinesulfonamide and (3R,5S)-1-(3-cyano-4-fluorophenyl)-N-(4-(2,6-dimethoxyphenyl)-5-(5-methyl-2-furanyl)-4H-1,2,4-triazol-3-yl)-5-hydroxy-3-piperidinesulfonamide] was 0.38 nM; that for `COc1cnc([C@H](O)[C@@H](C)S(=O)(=O)Nc2nnc(-c3ccc(C)o3)n2-c2c(OC)cccc2OC)cn1` (single isomer, unassigned) [Example 177.0, (1S,2R)—N-(4-(2,6-Dimethoxyphenyl)-5-(5-methyl-2-furanyl)-4H-1,2,4-triazol-3-yl)-1-hydroxy-1-(5-methoxy-2-pyrazinyl)-2-propanesulfonamide or (1R,2S)—N-(4-(2,6-dimethoxyphenyl)-5-(5-methyl-2-furanyl)-4H-1,2,4-triazol-3-yl)-1-hydroxy-1-(5-methoxy-2-pyrazinyl)-2-propanesulfonamide] was 2.8 nM; that for `CCOC(=O)[C@@H]1C[C@H](S(=O)(=O)Nc2nnc(-c3ccco3)n2-c2c(OC)cccc2OC)CN(c2ncc(F)cn2)C1` (single isomer, unassigned) [Example 156.0, Ethyl (3R,5S)-5-((4-(2,6-Dimethoxyphenyl)-5-(2-furanyl)-4H-1,2,4-triazol-3-yl)sulfamoyl)-1-(5-fluoro-2-pyrimidinyl)-3-piperidinecarboxylate or Ethyl (3S,5R)-5-((4-(2,6-dimethoxyphenyl-5-(2-furanyl)-4H-1,2,4-triazol-3-yl)sulfamoyl)-1-(5-fluoro-2-pyrimidinyl)-3-piperidinecarboxylate] was 0.36 nM. Consider `COc1cccc(OC)c1-n1c(NS(=O)(=O)C[C@@](C)(O)c2ncc(C#N)cn2)nnc1-c1ccc(C)o1` (single isomer, unassigned) [Example 248.0, (2S)-2-(5-Cyano-2-pyrimidinyl)-N-(4-(2,6-dimethoxyphenyl)-5-(5-methyl-2-furanyl)-4H-1,2,4-triazol-3-yl)-2-hydroxy-1-propanesulfonamide or (2R)-2-(5-cyano-2-pyrimidinyl)-N-(4-(2,6-dimethoxyphenyl)-5-(5-methyl-2-furanyl)-4H-1,2,4-triazol-3-yl)-2-hydroxy-1-propanesulfonamide], for which the EC50 amounted to 1.6 nM.

As to `COc1ccnc(N2C[C@H](O)C[C@H](S(=O)(=O)Nc3nnc(-c4ccc(C)o4)n3-c3c(OC)cccc3OC)C2)n1` (single isomer, unassigned) [Example 327.0, (3S,5R)—N-(4-(2,6-Dimethoxyphenyl)-5-(5-methyl-2-furanyl)-4H-1,2,4-triazol-3-yl)-5-hydroxy-1-(4-methoxy-2-pyrimidinyl)-3-piperidinesulfonamide or (3R,5S)—N-(4-(2,6-dimethoxyphenyl)-5-(5-methyl-2-furanyl)-4H-1,2,4-triazol-3-yl)-5-hydroxy-1-(4-methoxy-2-pyrimidinyl)-3-piperidinesulfonamide], the EC50 worked out at 0.25 nM. On to `COc1cccc(OC)c1-n1c(NS(=O)(=O)[C@H](C)[C@H](O)c2cscn2)nnc1-c1ccc(C)o1` (single isomer, unassigned) [Example 298.0, (1R,2R)—N-(4-(2,6-Dimethoxyphenyl)-5-(5-methyl-2-furanyl)-4H-1,2,4-triazol-3-yl)-1-hydroxy-1-(1,3-thiazol-4-yl)-2-propanesulfonamide or (1S,2S)—N-(4-(2,6-dimethoxyphenyl)-5-(5-methyl-2-furanyl)-4H-1,2,4-triazol-3-yl)-1-hydroxy-1-(1,3-thiazol-4-yl)-2-propanesulfonamide], for which the EC50 was found to be 11 nM. The value for `COc1cccc(OC)c1-n1c(NS(=O)(=O)[C@H](C)Cc2ccncn2)nnc1-c1ccco1` (single isomer, unassigned) [Example 44.0, (2R)—N-(4-(2,6-dimethoxyphenyl)-5-(2-furanyl)-4H-1,2,4-triazol-3-yl)-1-(4-pyrimidinyl)-2-propanesulfonamide or (2S)—N-(4-(2,6-dimethoxyphenyl)-5-(2-furanyl)-4H-1,2,4-triazol-3-yl)-1-(4-pyrimidinyl)-2-propanesulfonamide] was 44 nM; that for `COc1cccc(OC)c1-n1c(NS(=O)(=O)CCc2ncc(Cl)cc2C2=CCOCC2)nnc1-c1ccco1` [Example 215.0, 2-(5-Chloro-3-(3,6-dihydro-2H-pyran-4-yl)-2-pyridinyl)-N-(4-(2,6-dimethoxyphenyl)-5-(2-furanyl)-4H-1,2,4-triazol-3-yl)ethanesulfonamide] was 0.22 nM; that for `C[C@@H](Cc1ncc(F)cn1)S(=O)(=O)Nc1nnc(-c2ccco2)n1-c1cccc2ccccc12` (mixture of isomers) [Example 314.0, (2R)-1-(5-Fluoro-2-pyrimidinyl)-N-(5-(2-furanyl)-4-(1-naphthalenyl)-4H-1,2,4-triazol-3-yl)-2-propanesulfonamide and (2S)-1-(5-fluoro-2-pyrimidinyl)-N-(5-(2-furanyl)-4-(1-naphthalenyl)-4H-1,2,4-triazol-3-yl)-2-propanesulfonamide] was 230 nM. The value for `COc1cccc(OC)c1-n1c(NS(=O)(=O)C[C@@H](C)c2ncc(F)cn2)nnc1-c1ccc(C)o1` (single isomer, unassigned) [Example 123.0, (S)—N-(4-(2,6-Dimethoxyphenyl)-5-(5-methylfuran-2-yl)-4H-1,2,4-triazol-3-yl)-2-(5-fluoropyrimidin-2-yl)propane-1-sulfonamide or (R)—N-(4-(2,6-dimethoxyphenyl)-5-(5-methylfuran-2-yl)-4H-1,2,4-triazol-3-yl)-2-(5-fluoropyrimidin-2-yl)propane-1-sulfonamide] was 0.24 nM; that for `COc1cccc(OC)c1-n1c(NS(=O)(=O)[C@H](C)Cc2ncc(Cl)cn2)nnc1-c1ccco1` (single isomer, unassigned) [Example 37.0, (2R)-1-(5-chloro-2-pyrimidinyl)-N-(4-(2,6-dimethoxyphenyl)-5-(2-furanyl)-4H-1,2,4-triazol-3-yl)-2-propanesulfonamide or (2S)-1-(5-chloro-2-pyrimidinyl)-N-(4-(2,6-dimethoxyphenyl)-5-(2-furanyl)-4H-1,2,4-triazol-3-yl)-2-propanesulfonamide] was 3.6 nM; that for `COc1cccc(OC)c1-n1c(NS(=O)(=O)[C@H](C)Cc2ncc(Cl)cc2NC(C)=O)nnc1-c1ccco1` (single isomer, unassigned) [Example 9.0, N-(5-chloro-2-((2R)-2-((4-(2,6-dimethoxyphenyl)-5-(2-furanyl)-4H-1,2,4-triazol-3-yl)sulfamoyl)propyl)-3-pyridinyl)acetamide or N-(5-chloro-2-((2S)-2-((4-(2,6-dimethoxyphenyl)-5-(2-furanyl)-4H-1,2,4-triazol-3-yl)sulfamoyl)propyl)-3-pyridinyl)acetamide] was 0.091 nM. As to `CCO[C@@H](c1ncc(C)cn1)[C@H](C)S(=O)(=O)Nc1nnc(-c2ccc(C)o2)n1-c1c(OC)cccc1OC` (single isomer, unassigned) [Example 117.0, (1S,2S)-N-(4-(2,6-dimethoxyphenyl)-5-(5-methylfuran-2-yl)-4H-1,2,4-triazol-3-yl)-1-ethoxy-1-(5-methylpyrimidin-2-yl)propane-2-sulfonamide or (1R,2R)-N-(4-(2,6-dimethoxyphenyl)-5-(5-methylfuran-2-yl)-4H-1,2,4-triazol-3-yl)-1-ethoxy-1-(5-methylpyrimidin-2-yl)propane-2-sulfonamide], the EC50 came out at 0.061 nM.

`COc1cccc(OC)c1-n1c(NS(=O)(=O)[C@@H](C)[C@H](O)c2cn3ccccc3n2)nnc1-c1ccc(C)o1` (single isomer, unassigned) [Example 265.0, (1R,2S)—N-(4-(2,6-Dimethoxyphenyl)-5-(5-methyl-2-furanyl)-4H-1,2,4-triazol-3-yl)-1-hydroxy-1-imidazo[1,2-a]pyridin-2-yl-2-propanesulfonamide or (1S,2R)—N-(4-(2,6-dimethoxyphenyl)-5-(5-methyl-2-furanyl)-4H-1,2,4-triazol-3-yl)-1-hydroxy-1-imidazo[1,2-a]pyridin-2-yl-2-propanesulfonamide]: the EC50 came to 0.18 nM. Take `COc1cccc(OC)c1-n1c(NS(=O)(=O)[C@@H]2COCC[C@@H]2O)nnc1-c1ccc(C)o1` (single isomer, unassigned) [Example 405.0]: the EC50 was found to be 64 nM.
